Source: patent publication US11767536B2, “Method for obtaining glyphosate-resistant rice by site-directed nucleotide substitution” (Institute of Genetics and Developmental Biology, Chinese …, priority 2015, dated 2023)

Experiments:
[1] = test system: wild type rice (Oryza sativa L. japonica. cv. Nipponbare) plants; assay: Glyphosate resistance verification in N6 culture medium, wild type rice plants; type: in vivo; conditions: N6 culture medium containing 1 mg/L glyphosate, recorded after 10 days
Procedure: (§1) The three TIPS EPSPS site mutation lines (T0-1, T0-5 and T0-7) obtained from Example 4 and wild type rice (Oryza sativa L. japonica. cv. Nipponbare) plants were placed into an N6 culture medium containing 1 mg/L glyphosate, and cultured under the routine culture conditions. The resistance results were recorded after 10 days. Verification was carried out in more than 3 plants for each TIPS EPSPS site mutation line.

[2] = test system: TIPS EPSPS site mutation lines (T0-1, T0-5 and T0-7); assay: Glyphosate resistance verification in N6 culture medium, TIPS EPSPS site mutation lines; type: in vivo, Oryza sativa L. japonica. cv. Nipponbare; conditions: N6 culture medium containing 1 mg/L glyphosate, recorded after 10 days, TIPS EPSPS mutant rice T0-1, T0-5, T0-7
Procedure: as §1

O=C(O)CNCP(=O)(O)O [glyphosate]
resistance results (plant condition) [1]: chlorotic and wilting to die | resistance results (plant condition) [2]: survived normally
